# Source: patent publication US20210346336A1, “FURAN DERIVATIVES AS BROMODOMAIN INHIBITORS” (GlaxoSmithKline Intellectual Property (No.2) Limited, priority 2018, published 2021)
# Molecular target: T1, BRD4 BD2 (Homo sapiens, UniProt O60885, Y97A)
# T1 construct: BRD4 (1-477) (Y97A) and (Y390A); made in house; host or cells: E. coli (pET15b vector)
# Experiment: BRD4 BD2 TR-FRET competition assay (mutant tandem bromodomain)
# Type: binding
# Details: read-out: pIC50 in the BRD4 BD2 assay (converted)
# Experimental: Bromodomain binding was assessed utilising a time resolved fluorescent resonance energy transfer (TR-FRET) competition assay. To enable this approach a known, high affinity, pan-BET interacting small molecule was labelled with Alexa Fluor® 647, which is a far-red-fluorescent dye (Reference Compound X). Reference Compound X acts as a reporter of bromodomain binding and is the acceptor fluorophore component of the TR-FRET pair. Europium chelate, conjugated to an anti-6*His antibody, was utilised as the donor fluorophore in the TR-FRET pair. […] A TR-FRET signal is generated when the donor and acceptor fluorophores are in close proximity, between 20-80 Å, which is enabled in this assay by binding of Reference Compound X to the bromodomain protein.
# Assay Principle: In order to generate a TR-FRET signal, donor fluorophore is excited by a laser at λ337 nm, which subsequently leads to emission at λ618 nm. If the acceptor fluorophore is in close proximity then energy transfer can occur, which leads to emission of Alexa Fluor® 647 at λ665 nm. In the presence of competitor compound, Reference Compound X can be displaced from binding to the bromodomain. If displacement occurs, the acceptor fluorophore is no longer in proximity to the donor fluorophore, which prevents fluorescent energy transfer and, subsequently, a loss of Alexa Fluor®647 emission at λ665 nm.
# (§1) The competition of the compounds of formula (I) with Reference Compound X for binding to the BET family (BRD2, BRD3, BRD4 and BRDT) was assessed using protein truncates spanning both bromodomain 1 (BD1) and bromodomain 2 (BD2). In order to monitor differential binding to either BD1 or BD2, single residue mutations of key tyrosines to alanine were made in the acetyl lysine binding pockets. To validate this approach, a double residue mutant tandem domain protein was produced for each of the BET family members. Utilising a Fluorescence Polarisation approach, binding affinities for each of the single and double mutants for Reference Compound X were determined.
# Final purification was completed by Superdex 200 prep grade size exclusion column. Purified protein was stored at −80° C. in 20 mM HEPES pH 7.5 and 100 mM NaCl.
# Protocol for Bromodomain BRD2, 3, 4 and T, BD1+BD2 mutant TR-FRET competition assays: All assay components were dissolved in an assay buffer composing of 50 mM HEPES pH7.4, 50 mM NaCl, 5% Glycerol, 1 mM DTT and 1 mM CHAPS. […] The solution containing bromodomain and Reference Compound X was added to dose response dilutions of test compound or DMSO vehicle (a maximum of 0.5% DMSO is used in this assay) in Greiner 384 well black low volume microtitre plates and subsequently incubated for 30 minutes at rt. An equal volume of 3 nM of anti-6*His Europium chelate was added to all wells, followed by a further 30 minute incubation at rt. TR-FRET was detected using a Perkin Elmer Multimode plate reader, by exciting the donor fluorophore at λ337 nm and subsequently, after a delay of 50 μsecs, measuring emission of the donor and acceptor fluorophores at λ615 nm and λ665 nm, respectively. In order to control these assays, 16 replicates each of uninhibited (DMSO vehicle) and inhibited (10*IC50 concentrations of Example 11 of WO 2011/054846A1) TR-FRET assays were included on every microtitre plate.
# cA four parameter curve fit of the following form was then applied:
# y=a+((b−a)/(1+(10^x/10^c)^d) • Where ‘a’ is the minimum, ‘b’ is the […], ‘c’ is the pIC50 and ‘d’ is the […].
# Those of skill in the art will recognise that in vitro binding assays and cell-based assays for functional activity are subject to experimental variability. Accordingly, it is to be understood that the pIC50 values given below are exemplary only. pIC50 values are expressed as log10 units.
row,Compound,IC50
1,"CNC(=O)c1cc(C(=O)N[C@H]2[C@@H]3COC[C@@H]32)c([C@H](CC#N)c2cccc(Cl)c2)o1 (single isomer, unassigned) [Example 88, N^4-((1R,5S,6r)-3-Oxabicyclo[3.1.0]hexan-6-yl)-5-((R*)-1-(3-chlorophenyl)-2-cyanoethyl)-N^2-methylfuran-2,4-dicarboxamide]",1 to 10 µM
2,"CNC(=O)c1cc(C(=O)N[C@H]2[C@@H]3COC[C@@H]32)c([C@H](C)c2cccc(Cl)c2)o1 (single isomer, unassigned) [Example 89, N^4-((1R,5S,6r)-3-Oxabicyclo[3.1.0]hexan-6-yl)-5-((R*)-1-(3-chlorophenyl)ethyl)-N^2-methylfuran-2,4-dicarboxamide]",1 to 10 µM
3,"CNC(=O)c1cc(C(=O)N[C@H]2CC[C@H](O)CC2)c([C@@H](OC)c2cccc(Cl)c2)o1 (single isomer, unassigned) [Example 93, 5-((S*)-(3-Chlorophenyl)(methoxy)methyl)-N^4-((1r,4S)-4-hydroxycyclohexyl)-N^2-methylfuran-2,4-dicarboxamide]",1 to 10 µM
4,"CNC(=O)c1cc(C(=O)N[C@H]2CC[C@H](O)CC2)c([C@@H](C)c2cc(Cl)cc(OC)c2)o1 (single isomer, unassigned) [Example 94, 5-((S*)-1-(3-Chloro-5-methoxyphenyl)ethyl)-N^4-((1r,4S)-4-hydroxycyclohexyl)-N^2-methylfuran-2,4-dicarboxamide]",1 to 10 µM
5,"CNC(=O)c1cc(C(=O)N[C@H]2CC[C@H](O)CC2)c([C@@H](C)c2ccc(OC)c(Cl)c2)o1 (single isomer, unassigned) [Example 95, 5-((S*)-1-(3-Chloro-4-methoxyphenyl)ethyl)-N^4-((1r,4S)-4-hydroxycyclohexyl)-N^2-methylfuran-2,4-dicarboxamide]",1 to 10 µM

# The remaining lines, values ahead:
row,IC50,Compound
1,1 to 10 µM,"CNC(=O)c1cc(C(=O)N[C@H]2C[C@@H]2C)c(C(C)c2ccccc2)o1 (single isomer, unassigned) [Example 96, N^2-methyl-N^4-((1S,2S)-2-Methylcyclopropyl)-5-((S*)-1-phenylethyl)furan-2,4-dicarboxamide]"
2,1 to 10 µM,"CNC(=O)c1cc(C(=O)N[C@H]2CC[C@H](O)CC2)c([C@@H](C)c2ccc(C)c(Cl)c2)o1 (single isomer, unassigned) [Example 98, 5-((S*)-1-(3-Chloro-4-methylphenyl)ethyl)-N^4-((1r,4S)-4-hydroxycyclohexyl)-N^2-methylfuran-2,4-dicarboxamide]"
3,1 to 10 µM,"CNC(=O)c1cc(C(=O)N[C@H]2CC[C@H](O)CC2)c([C@@H](CO)c2ccccc2)o1 (single isomer, unassigned) [Example 101, 5-((R*)-2-Hydroxy-1-phenylethyl)-N^4-((1r,4R)-4-hydroxycyclohexyl)-N^2-methylfuran-2,4-dicarboxamide]"
4,1 to 10 µM,"CNC(=O)c1cc(C(=O)N[C@H]2CC[C@H](O)CC2)c([C@@H](C)c2ccc(OC)cc2)o1 (single isomer, unassigned) [Example 102, N^4-((1r,4S)-4-Hydroxycyclohexyl)-5-((S*)-1-(4-methoxyphenyl)ethyl)-N^2-methylfuran-2,4-dicarboxamide]"
5,1 to 10 µM,"CNC(=O)c1cc(C(=O)N[C@H]2CC[C@H](O)CC2)c([C@@H](C)c2ccc(OC)c(OC)c2)o1 (single isomer, unassigned) [Example 106, 5-((S*)-1-(3,4-Dimethoxyphenyl)ethyl)-N^4-((1r,4S)-4-hydroxycyclohexyl)-N^2-methylfuran-2,4-dicarboxamide]"
6,1 to 10 µM,"CNC(=O)c1cc(C(=O)N[C@H]2CC[C@H](O)CC2)c([C@@H](OC)c2ccccc2)o1 (single isomer, unassigned) [Example 108, N^4-((1r,4S)-4-Hydroxycyclohexyl)-5-((S*)-methoxy(phenyl)methyl)-N^2-methylfuran-2,4-dicarboxamide]"
7,1 to 10 µM,"CNC(=O)c1cc(C(=O)NCC2CC2)c([C@@H](C)c2ccccc2)o1 [Example 104, (S)-N^4-(Cyclopropylmethyl)-N^2-methyl-5-(1-phenylethyl)furan-2,4-dicarboxamide]"

# Tested on: BET family (BRD2, BRD3, BRD4 and BRDT) tandem bromodomain proteins
# Experiment: Fluorescence Polarisation binding of Reference Compound X to single and double mutant tandem BET proteins
# Design: species or system Human
# Details: compared with the corresponding non-mutated BET protein
# Experimental: as §1, with “determined. […] The affinities of the single mutated bromdomain tandem proteins for Reference Compound X were equi-potent with the corresponding non-mutated BET protein. […] In the TR-FRET competition assay, Reference Compound X is used at a concentration that is equivalent to the Kd for the non-mutated bromodomain, which ensures that no binding at the mutated bromodomain is detected.” for “determined.”
# Protein production: Recombinant Human Bromodomains [(BRD2 (1-473) (Y113A) and (Y386A), BRD3 (1-435) (Y73A) and (Y348A) BRD4 (1-477) (Y97A) and (Y390A) and BRDT (1-397) (Y66A) and (Y309A)] were expressed in E. coli cells (in pET15b vector for BRD2/3/4 and in pET28a vector for BRDT) with a 6-His tag at the N-terminal. The His-tagged Bromodomain pellet was resuspended in 50 mM HEPES (pH7.5), 300 mM NaCl, 10 mM imidazole & 1 μL/mL protease inhibitor cocktail and extracted from the E. coli cells using sonication and purified using a nickel sepharose high performance column, the proteins were washed and then eluted with a linear gradient of 0-500 mM imidazole with buffer 50 mM HEPES (pH7.5), 150 mM NaCl, 500 mM imidazole, over 20 column volumes. Final purification was completed by Superdex 200 prep grade size exclusion column. Purified protein was stored at −80° C. in 20 mM HEPES pH 7.5 and 100 mM NaCl. Protein identity was confirmed by peptide mass fingerprinting and predicted molecular weight confirmed by mass spectrometry.
row,Compound,affinities of the single mutated bromdomain tandem proteins
1,COc1ccc2c(c1)C(c1ccc(Cl)cc1)=N[C@@H](CC(=O)NCCCCCNC(=O)CCCCCC1(C)/C(=C/C=C/C=C/C3=[N+](CCCCS(=O)(=O)O)c4ccc(S(=O)(=O)O)cc4C3(C)C)N(CCCCS(=O)(=O)[O-])c3ccc(S(=O)(=O)O)cc31)c1nnc(C)n1-2 (stereo partly drawn) [Reference Compound X],equi-potent

# Same assay, conditions: double mutant tandem proteins in comparison to non mutated, wild type tandem BET proteins
row,Compound,reduction in Kd
1,COc1ccc2c(c1)C(c1ccc(Cl)cc1)=N[C@@H](CC(=O)NCCCCCNC(=O)CCCCCC1(C)/C(=C/C=C/C=C/C3=[N+](CCCCS(=O)(=O)O)c4ccc(S(=O)(=O)O)cc4C3(C)C)N(CCCCS(=O)(=O)[O-])c3ccc(S(=O)(=O)O)cc31)c1nnc(C)n1-2 (stereo partly drawn) [Reference Compound X],> 1000 fold

# Same assay, conditions: single mutations of Tyrosine to Alanine
row,Compound,reduction of the Kd of the interaction between the mutated bromodomain and Reference Compound X
1,COc1ccc2c(c1)C(c1ccc(Cl)cc1)=N[C@@H](CC(=O)NCCCCCNC(=O)CCCCCC1(C)/C(=C/C=C/C=C/C3=[N+](CCCCS(=O)(=O)O)c4ccc(S(=O)(=O)O)cc4C3(C)C)N(CCCCS(=O)(=O)[O-])c3ccc(S(=O)(=O)O)cc31)c1nnc(C)n1-2 (stereo partly drawn) [Reference Compound X],> 1000 fold
